In patent publication US11007169B2, “Cis-gnetin H and trans-gnetin H as therapeutic agents” (MIDDLE TENNESSEE STATE UNIVERSITY, priority 2014, dated 2021):

Legend:
[1] = system: BT20 cells; test: Apoptosis assay by flow cytometry, BT20; assay type: cell-based, human; conditions: 100 μM, 24 hours
Protocol: A549 and BT20 cells were seeded in a 96-well plate (BD Falcon) at a density of 8000 cells/well, and treated with cis- or trans-gnetin H for 24 hours. Apoptosis was assessed using Annexin V/7-AAD double staining as described (Bai et al., Cancer Sci. 2010; 101(2):488-493). Cells were analyzed on a Guava Flow Cytometer (Millipore) using InCyte software and the data was exported to FlowJo software for image display.

[2] = system: normal cells (HPL1A, HMEC); test: IC50 determination, normal cell lines; assay type: cell-based; conditions: Homo sapiens; HPL1A and HMEC, 48 hours; read-out: IC50 values in normal cells (range over cell lines)
Protocol: The cancer cell lines used in this study included human lung carcinoma (A549), human breast carcinoma (BT20 and MCF-7) and human osteosarcoma (U2OS), with the normal cell lines human peripheral lung epithelial cells (HPL1A) and human mammary epithelial cells (HMEC) serving as controls. A549, BT20, MCF-7, U2OS and HMEC cells were purchased from American Type Culture Collection (ATCC, USA), and HPL1A cells were obtained from Nagoya University, Japan. A549 and BT20 were grown in RPMI-1640 (Sigma), MCF-7 was grown in Dulbecco's Modified Eagle Medium (DMEM) (Sigma) supplemented with 0.01 mg/ml human recombinant insulin (Sigma), U2OS and HMEC were grown in McCoy's 5A (ATCC), and HPL1A was grown in DMEM/F-12K (Sigma). The mediums were supplemented with 10% Fetal Bovine Serum (FBS) (Gibco), 1% penicillin and streptomycin and incubated in a humidified atmosphere with 5% CO2 at 37° C.
The proliferation inhibition potential of cis- and trans-gnetin H was determined by a fluorescence dye staining method. Cells were seeded in a 96-well tissue culture-treated plate (BD Falcon) at a density of 4000 cells/well, and treated with cis- or trans-gnetin H for 48 hours. AlamarBlue dye (Invitrogen) was used to assess the viability of cells according to the manufacturer's instructions; the fluorescent intensity was read on a SpectraMax M2e microplate reader (Molecular Devices Inc.). […]

[3] = system: NF-κB nuclear translocation in A549 cells; test: Inhibition of TNF-α activated NF-κB translocation, Arrayscan VTI HCS Reader; assay type: cell-based, human; conditions: 100 μM for 2 hrs, then 10 ng/ml TNF-α
Protocol: A549 cells were seeded in 96 well plates (BD Falcon) at a density of 4000 cells/well, and were treated with 100 μM cis- or trans-gnetin H for 2 hrs, followed by treatment of 10 ng/ml tumor necrosis factor-alpha (TNF-α) (Sigma). Untreated cells and cells treated with only 10 ng/ml TNF-α served as controls. Cells were fixed, permeabilized, and stained with Nuclear factor kappa B (NF-κB) primary antibody, Dylight 488 conjugated secondary antibody, and Hoechst 33342 dye, sequentially. The Hoechst and DyLight fluorophores respectively detect changes in nuclear morphology (blue fluorescence) and NF-κB distribution (green fluorescence). Images were acquired at different channels using suitable filters with a 20× objective and analyzed on the Arrayscan VTI HCS Reader (Thermo Scientific). The Nuclear Translocation BioApplication software (Thermo Scientific) was used for image acquisition and analysis. For each well, at least 400 cells were automatically acquired and analyzed. The translocation index was calculated by measuring the average intensity difference of NF-κB between the identified cytoplasmic region and nuclear region (MEAN_CircRingAvgIntenDiffCh2). Experiments were performed in triplicates.

[4] = system: BT20 cells; test: Cell cycle analysis by flow cytometry, BT20; assay type: cell-based, human; conditions: 100 μM, 24 hours
Protocol: A549 and BT20 cells were first synchronized in the G0 phase by culturing cells for 24 hours in serum-free medium and then treated with 100 μM cis- or trans-gnetin H for 24 hours, respectively. Cell cycle analysis was done using propidium iodide (PI) staining as described (An et al., Mol. Cancer Ther. 2007; 6:61-9) and the cells were analyzed on a Guava Flow Cytometer with InCyte software (Millipore).

[5] = system: p65 (RelA) nuclear translocation in THP-1 cells; test: Indirect immunofluorescence for NF-κB nuclear translocation; assay type: cell-based, human; conditions: pretreated 1 h, LPS 30 min; Bay 11-7082 10 μM
Protocol: THP-1 cells were maintained in RPMI 1640 medium supplemented with 10% complement-inactivated FBS and 1% penicillin/streptomycin (complete culture medium) at 37° C. with 5% CO2 supplemented. Cell concentrations were adjusted to desired concentrations for each experiment by centrifugation at 500×g for 5 min and resuspended in complete culture medium with 100 nM of PMA. Cell concentration was adjusted to 5×10^5 cells/ml for all assays and 2.5×10^5 cells/ml were used for NF-κB nuclear translocation assay. Cells were seeded onto 96-, 24-, or 12-well plates and incubated for 48 to 72 h to allow for differentiation. Cells were washed with serum-free RPMI 1640 medium before each experiment to remove the undifferentiated cells.
Differentiated THP-1 cells were pretreated with 50 μM of cis-gnetin H, trans-gnetin H, or 10 μM of Bay 11-7082 for 1 h and stimulated with 1 μg/ml of LPS for 30 min. Bay 11-7082 is a compound that inhibits IKK α/β and IκB α phosphorylation and was used as a positive control (Juliana et al., 2010, J. Biol. Chem., 285:9792-802). Treated cells were fixed, permeabilized, blocked, and stained with NF-κB, p65 primary antibody, Dylight 488 conjugated secondary antibody, and Hoechst 33342 dye, sequentially. The Hoechst and DyLight fluorophores detect changes in nuclear morphology (blue fluorescence) and NF-κB distribution (green fluorescence) respectively. Nuclear Translocation Bioapplication software on the Arrayscan VTI reader was used for image acquisition and analysis. For each well, at least 400 cells were automatically acquired and analyzed. The translocation index was calculated by measuring the average intensity difference of NF-icB between the identified cytoplasmic region and nuclear region.

| Structure (SMILES) | apoptosis induction in BT20 [1] | IC50 [2] | TNF-α-induced NF-κB nuclear translocation [3] | G0-G1 subpopulation, BT20 [4] | M and G2-S subpopulation, BT20 [4] | p65 nuclear translocation [5] |
| --- | --- | --- | --- | --- | --- | --- |
| Oc1ccc(/C=C\c2c3c(cc4c2[C@H](c2cc(O)cc(O)c2)[C@@H](c2ccc(O)cc2)O4)O[C@H](c2ccc(O)cc2)[C@H]3c2cc(O)cc(O)c2)cc1 [cis-gnetin H] | induce apoptosis | 25.9 to 91 µM | significant inhibition | increased significantly | significant decrease | inhibited the p65 nuclear translocation |
| Oc1ccc(/C=C/c2c3c(cc4c2[C@H](c2cc(O)cc(O)c2)[C@@H](c2ccc(O)cc2)O4)O[C@H](c2ccc(O)cc2)[C@H]3c2cc(O)cc(O)c2)cc1 [trans-gnetin H] | induce apoptosis | 25.9 to 91 µM | significant inhibition | increased significantly | significant decrease | inhibited the p65 nuclear translocation |
